Experimental data published in patent publication US11168073B2, “3,3-difluoroallylamines or salts thereof and pharmaceutical compositions comprising the same” (YUHAN CORPORATION, priority 2018, dated 2021).
Counter-ions that a name gives are not always drawn. Like-named read-outs stand apart in the source and are kept apart here.

Experiments:
Assay type in all cases: biochemical
recombinant human VAP-1 = molecular target: T1, recombinant human VAP-1 (Homo sapiens, UniProt Q16853); assay: Activity evaluation on recombinant human VAP-1 (Amplex Red/HRP-coupled hydrogen peroxide assay, benzylamine substrate); settings: read-out: Inhibitory Activity (IC50, nM) human VAP-1
T1 construct: purchased R&D systems
T1 sequence (Q16853 1-763): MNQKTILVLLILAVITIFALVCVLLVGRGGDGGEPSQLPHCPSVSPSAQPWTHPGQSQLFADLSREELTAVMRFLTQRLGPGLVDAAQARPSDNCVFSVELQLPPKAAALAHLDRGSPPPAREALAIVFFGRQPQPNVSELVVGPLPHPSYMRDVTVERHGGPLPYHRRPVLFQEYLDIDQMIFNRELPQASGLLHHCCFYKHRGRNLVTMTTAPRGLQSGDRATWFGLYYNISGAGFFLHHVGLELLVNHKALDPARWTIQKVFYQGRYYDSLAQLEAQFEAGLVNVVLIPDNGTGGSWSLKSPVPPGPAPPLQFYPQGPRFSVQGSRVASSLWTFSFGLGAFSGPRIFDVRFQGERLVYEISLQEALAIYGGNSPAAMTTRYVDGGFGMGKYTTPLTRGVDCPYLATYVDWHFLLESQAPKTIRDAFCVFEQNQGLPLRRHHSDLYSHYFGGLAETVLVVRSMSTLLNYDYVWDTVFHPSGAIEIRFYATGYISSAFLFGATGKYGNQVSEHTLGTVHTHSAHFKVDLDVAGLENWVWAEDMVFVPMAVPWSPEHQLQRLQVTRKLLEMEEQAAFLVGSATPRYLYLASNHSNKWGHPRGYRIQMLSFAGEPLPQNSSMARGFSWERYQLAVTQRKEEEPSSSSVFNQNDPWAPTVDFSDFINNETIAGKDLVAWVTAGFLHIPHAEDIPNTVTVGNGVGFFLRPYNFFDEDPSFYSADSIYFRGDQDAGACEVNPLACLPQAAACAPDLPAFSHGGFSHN
Method in brief: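 Hydrogen peroxide from benzylamine (1 mM) oxidation by human recombinant VAP-1 detected via HRP-coupled Amplex Red (200 uM) fluorescence, kinetic over 1–2 h. Enzyme and compound preincubated 30 min at 37 °C, pH 7.4 phosphate; 8-point dose response, signal-rate decrease versus DMSO control fitted to four-parameter logistic for IC50.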

[1] = molecular target: T2, recombinant human MAO-A (monoamine oxidase-A) (Homo sapiens, UniProt P21397); assay: Activity evaluation on recombinant human MAO-A (Amplex Red/HRP-coupled assay, 0.5 mM tyramine substrate); settings: read-out: Inhibitory Activity (IC50, nM) MAO-A
T2 construct: purchased Sigma-Aldrich
T2 sequence (P21397 1-527): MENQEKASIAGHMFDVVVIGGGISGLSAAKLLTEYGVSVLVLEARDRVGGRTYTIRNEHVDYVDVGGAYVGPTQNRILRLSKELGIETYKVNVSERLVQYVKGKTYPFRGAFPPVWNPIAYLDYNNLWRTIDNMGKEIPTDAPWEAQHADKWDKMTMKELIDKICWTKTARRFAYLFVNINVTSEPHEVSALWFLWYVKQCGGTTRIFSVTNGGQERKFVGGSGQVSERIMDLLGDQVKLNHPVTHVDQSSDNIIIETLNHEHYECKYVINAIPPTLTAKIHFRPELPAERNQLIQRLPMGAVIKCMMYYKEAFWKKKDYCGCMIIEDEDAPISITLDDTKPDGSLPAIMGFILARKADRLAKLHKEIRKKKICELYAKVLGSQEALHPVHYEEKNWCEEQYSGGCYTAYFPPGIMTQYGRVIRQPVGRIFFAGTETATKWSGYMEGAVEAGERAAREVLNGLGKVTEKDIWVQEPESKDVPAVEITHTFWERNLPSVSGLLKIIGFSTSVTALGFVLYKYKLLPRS
Method in brief: (§1)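 Each oxidase is tested with its own substrate: MAO-A with 0.5 mM tyramine, MAO-B with 1 mM benzylamine, DAO with 1 mM putrescine. After 30 min enzyme-compound preincubation at 37 °C, Amplex Red (200 uM) plus HRP (1 U/mL) reports H2O2 as fluorescence; IC50 is fitted from eight-point curves.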

[2] = molecular target: T3, recombinant human MAO-B (monoamine oxidase-B) (Homo sapiens, UniProt P27338); assay: Activity evaluation on recombinant human MAO-B (Amplex Red/HRP-coupled assay, 1 mM benzylamine substrate); settings: read-out: Inhibitory Activity (IC50, nM) MAO-B
T3 construct: purchased Sigma-Aldrich
T3 sequence (P27338 1-520): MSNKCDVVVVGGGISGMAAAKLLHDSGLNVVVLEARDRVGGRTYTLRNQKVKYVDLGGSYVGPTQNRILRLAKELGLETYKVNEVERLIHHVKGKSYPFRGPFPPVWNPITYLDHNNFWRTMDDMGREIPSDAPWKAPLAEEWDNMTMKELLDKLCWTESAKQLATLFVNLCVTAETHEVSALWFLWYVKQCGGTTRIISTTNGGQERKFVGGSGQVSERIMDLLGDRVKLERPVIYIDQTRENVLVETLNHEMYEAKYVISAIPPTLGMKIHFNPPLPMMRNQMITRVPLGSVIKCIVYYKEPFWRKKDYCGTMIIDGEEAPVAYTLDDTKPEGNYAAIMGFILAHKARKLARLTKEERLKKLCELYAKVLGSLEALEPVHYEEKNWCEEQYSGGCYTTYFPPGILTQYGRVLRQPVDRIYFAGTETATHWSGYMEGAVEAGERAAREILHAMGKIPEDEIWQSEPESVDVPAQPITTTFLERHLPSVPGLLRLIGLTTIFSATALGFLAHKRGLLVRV
Method in brief: as §1

[3] = molecular target: T4, recombinant human DAO (diamine oxidase) (Homo sapiens, UniProt P19801); assay: Activity evaluation on recombinant human DAO (Amplex Red/HRP-coupled assay, 1 mM putrescine substrate); settings: read-out: Inhibitory Activity (IC50, nM) DAO
T4 construct: purchased R&D systems
T4 sequence (P19801 20-751): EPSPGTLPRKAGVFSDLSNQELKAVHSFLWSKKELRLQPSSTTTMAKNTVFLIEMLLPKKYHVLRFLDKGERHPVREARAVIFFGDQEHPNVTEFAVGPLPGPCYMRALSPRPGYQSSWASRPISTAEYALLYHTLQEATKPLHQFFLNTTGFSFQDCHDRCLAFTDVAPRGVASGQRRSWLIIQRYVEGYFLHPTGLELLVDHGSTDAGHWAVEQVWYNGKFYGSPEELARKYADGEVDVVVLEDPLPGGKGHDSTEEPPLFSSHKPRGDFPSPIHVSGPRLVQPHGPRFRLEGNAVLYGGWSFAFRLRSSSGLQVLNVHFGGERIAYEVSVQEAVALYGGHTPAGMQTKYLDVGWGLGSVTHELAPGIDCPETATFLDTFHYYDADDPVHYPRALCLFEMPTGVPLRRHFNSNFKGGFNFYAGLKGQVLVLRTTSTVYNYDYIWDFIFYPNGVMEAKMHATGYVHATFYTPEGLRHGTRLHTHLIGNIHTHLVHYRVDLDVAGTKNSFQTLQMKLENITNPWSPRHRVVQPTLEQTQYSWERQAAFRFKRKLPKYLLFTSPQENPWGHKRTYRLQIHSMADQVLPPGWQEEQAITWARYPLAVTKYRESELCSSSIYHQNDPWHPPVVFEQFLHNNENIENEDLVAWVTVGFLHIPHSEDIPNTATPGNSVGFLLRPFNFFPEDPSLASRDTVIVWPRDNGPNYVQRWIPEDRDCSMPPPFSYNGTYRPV
Method in brief: as §1

[4] = recombinant human VAP-1, benzylamine substrate
[5] = recombinant human VAP-1, 30 min preincubation at 37° C., 1 mM benzylamine

SMILES: NCC(Cn1ncn(Cc2sc(-c3ccc4c(c3)OCO4)cc2F)c1=O)=C(F)F [Example 300, 2-[2-(aminomethyl)-3,3-difluoro-allyl]-4-[[5-(1,3-benzodioxol-5-yl)-3-fluoro-2-thienyl]methyl]-1,2,4-triazol-3-one Trifluoroacetate]
- IC50 (recombinant human VAP-1; [4]): 1.7 nM
- IC50 ([1]; 0.5 mM tyramine substrate): > 100000 nM
- IC50 ([2]; 1 mM benzylamine substrate): 11100 nM
- IC50 ([3]; 1 mM putrescine substrate): 25300 nM

SMILES: NCC(Cn1ncn(Cc2ccc(-c3ccc4c(c3)OCO4)s2)c1=O)=C(F)F [Example 126, 2-[2-(aminomethyl)-3,3-difluoro-allyl]-4-[[5-(1,3-benzodioxol-5-yl)-2-thienyl]methyl]-1,2,4-triazol-3-one Trifluoroacetate]
- IC50 (recombinant human VAP-1; [5]): 0.5 nM
- IC50 ([1]; 0.5 mM tyramine): > 100000 nM
- IC50 ([2]; 1 mM benzylamine): 760 nM
- IC50 ([3]; 1 mM putrescine): > 100000 nM

SMILES: NCC(Cn1ncn(-c2cccc(-c3ccc(N4CCNCC4)cc3)c2)c1=O)=C(F)F [Example 18, 2-[2-(aminomethyl)-3,3-difluoro-allyl]-4-[3-(4-piperazin-1-ylphenyl)phenyl]-1,2,4-triazol-3-one Ditrifluoroacetate]
- IC50 (recombinant human VAP-1; [5]): 15 nM
- IC50 ([1]; 0.5 mM tyramine): > 100000 nM
- IC50 ([2]; 1 mM benzylamine): > 100000 nM
- IC50 ([3]; 1 mM putrescine): 13000 nM

SMILES: NCC(Cn1ncn(Cc2cc3cc(-c4ccc5c(c4)OCO5)ccc3s2)c1=O)=C(F)F [Example 209, 2-[2-(aminomethyl)-3,3-difluoro-allyl]-4-[[5-(1,3-benzodioxol-5-yl)benzothiophen-2-yl]methyl]-1,2,4-triazol-3-one Trifluoroacetate]
- IC50 (recombinant human VAP-1; [4]): 4.3 nM
- IC50 ([1]; 0.5 mM tyramine substrate): > 100000 nM
- IC50 ([2]; 1 mM benzylamine substrate): 5180 nM
- IC50 ([3]; 1 mM putrescine substrate): 93700 nM

SMILES: CCn1cc(-c2cccc(-c3cnc(-n4cnn(CC(CN)=C(F)F)c4=O)c(C)c3)c2)cn1 [Example 291, 2-[2-(aminomethyl)-3,3-difluoro-allyl]-4-[5-[3-(1-ethylpyrazol-4-yl)phenyl]-3-methyl-2-pyridyl]-1,2,4-triazol-3-one Trifluoroacetate]
- IC50 (recombinant human VAP-1; [4]): 0.6 nM
- IC50 ([1]; 0.5 mM tyramine substrate): > 100000 nM
- IC50 ([2]; 1 mM benzylamine substrate): 3450 nM
- IC50 ([3]; 1 mM putrescine substrate): 6160 nM

SMILES: NCC(Cn1ncn(Cc2ccc(-c3cnn(S(=O)(=O)C4CC4)c3)s2)c1=O)=C(F)F [Example 294, 2-[2-(aminomethyl)-3,3-difluoro-allyl]-4-[[5-(1-cyclopropylsulfonylpyrazol-4-yl)-2-thienyl]methyl]-1,2,4-triazol-3-one Trifluoroacetate]
- IC50 (recombinant human VAP-1; [4]): 2.9 nM
- IC50 ([1]; 0.5 mM tyramine substrate): > 100000 nM
- IC50 ([2]; 1 mM benzylamine substrate): > 100000 nM
- IC50 ([3]; 1 mM putrescine substrate): 5380 nM

SMILES: NCC(Cn1ncn(Cc2ccc(-c3cc(F)c4[nH]c(=O)ccc4c3)s2)c1=O)=C(F)F [Example 137, 6-[5-[[1-[2-(aminomethyl)-3,3-difluoro-allyl]-5-oxo-1,2,4-triazol-4-yl]methyl]-2-thienyl]-8-fluoro-1H-quinolin-2-one Trifluoroacetate]
- IC50 (recombinant human VAP-1; [5]): 0.3 nM
- IC50 ([1]; 0.5 mM tyramine): > 100000 nM
- IC50 ([2]; 1 mM benzylamine): > 100000 nM
- IC50 ([3]; 1 mM putrescine): > 100000 nM

SMILES: CN1Cc2cc(-c3csc(Cn4cnn(CC(CN)=C(F)F)c4=O)c3)ccc2NC1=O [Example 186, 6-[5-[[1-[2-(aminomethyl)-3,3-difluoro-allyl]-5-oxo-1,2,4-triazol-4-yl]methyl]-3-thienyl]-3-methyl-1,4-dihydroquinazolin-2-one Trifluoroacetate]
- IC50 (recombinant human VAP-1; [4]): 0.5 nM
- IC50 ([1]; 0.5 mM tyramine substrate): > 100000 nM
- IC50 ([2]; 1 mM benzylamine substrate): > 100000 nM
- IC50 ([3]; 1 mM putrescine substrate): 25000 nM

SMILES: NCC(Cn1ncn(-c2cccc(Br)c2)c1=O)=C(F)F [Example 2, 2-[2-(aminomethyl)-3,3-difluoro-allyl]-4-(3-bromophenyl)-1,2,4-triazol-3-one Trifluoroacetate]
- IC50 (recombinant human VAP-1; [5]): 6.2 nM
- IC50 ([1]; 0.5 mM tyramine): > 100000 nM
- IC50 ([2]; 1 mM benzylamine): > 100000 nM
- IC50 ([3]; 1 mM putrescine): 46000 nM

SMILES: CCn1cc(-c2cc(-n3cnn(CC(CN)=C(F)F)c3=O)ccn2)cn1 [Example 67, 2-[2-(aminomethyl)-3,3-difluoro-allyl]-4-[2-(1-ethylpyrazol-4-yl)-4-pyridyl]-1,2,4-triazol-3-one Trifluoroacetate]
- IC50 (recombinant human VAP-1; [5]): 0.9 nM
- IC50 ([1]; 0.5 mM tyramine): > 100000 nM
- IC50 ([2]; 1 mM benzylamine): 8300 nM
- IC50 ([3]; 1 mM putrescine): 490 nM

SMILES: CC(=O)N1CCN(c2ccc(-c3ccc(Cn4cnn(CC(CN)=C(F)F)c4=O)s3)cc2)CC1 [Example 108, 4-[[5-[4-(4-acetylpiperazin-1-yl)phenyl]-2-thienyl]methyl]-2-[2-(aminomethyl)-3,3-difluoro-allyl]-1,2,4-triazol-3-one Trifluoroacetate]
- IC50 (recombinant human VAP-1; [5]): 2 nM
- IC50 ([1]; 0.5 mM tyramine): > 10000 nM
- IC50 ([2]; 1 mM benzylamine): > 10000 nM
- IC50 ([3]; 1 mM putrescine): 42000 nM

SMILES: Cn1cc(C#Cc2ccc(Cn3cnn(CC(CN)=C(F)F)c3=O)s2)cn1 [Example 171, 2-[2-(aminomethyl)-3,3-difluoro-allyl]-4-[[5-[2-(1-methylpyrazol-4-yl)ethynyl]-2-thienyl]methyl]-1,2,4-triazol-3-one Trifluoroacetate]
- IC50 (recombinant human VAP-1; [5]): 1.8 nM
- IC50 ([1]; 0.5 mM tyramine): > 100000 nM
- IC50 ([2]; 1 mM benzylamine): 50000 nM
- IC50 ([3]; 1 mM putrescine): > 100000 nM

SMILES: NCC(Cn1ncn(-c2cnc(-c3ccc(N4CCNCC4)cc3)cn2)c1=O)=C(F)F [Example 90, 2-[2-(aminomethyl)-3,3-difluoro-allyl]-4-[5-(4-piperazin-1-ylphenyl)pyrazin-2-yl]-1,2,4-triazol-3-one Ditrifluoroacetate]
- IC50 (recombinant human VAP-1; [5]): 1.3 nM
- IC50 ([1]; 0.5 mM tyramine): > 100000 nM
- IC50 ([2]; 1 mM benzylamine): > 100000 nM
- IC50 ([3]; 1 mM putrescine): 30 nM
